From patent US10632084B2, “Aquaporin 4 function promotor and pharmaceutical composition for neurological disorders” (NIIGATA UNIVERSITY, priority 2016, dated 2020)

What was measured:
senile plaques (Aβ) = assay: Immunostaining of brain slices and quantification of senile plaques in Alzheimer's disease model mice; type: in vivo, mouse; conditions: 5×FAD mice; for increase in senile plaques formed of Aβ 42: oral administration for 3 months (compound 1A 50 mg/kg, compound 2A 200 mg/kg), cerebral cortex (FIGS. 4A, 4B)
Procedure: (§1) 5×FAD Alzheimer's disease model mice were bred until 4 months old. Next, the compound 1A (50 mg/kg) or the compound 2A (200 mg/kg) prepared in Production Example 1 were orally administered to the mice for 3 months. Further, a non-administration group was also prepared as the control.
Subsequently, the brain was extracted from each mouse, paraffin-embedded slices (respectively with a thickness of 4 μm) were prepared using brain tissues, and immunohistochemical staining was performed according to the following method.
First, the slices were subjected to a formic acid treatment, and overnight incubation was performed at 4° C. using Mouse monoclonal Anti-Human Amyloid J3 (Total Aj3) (10027, IBL, Japan), [2] Rabbit polyclonal Anti-Human Amyloid J31-40 (AJ340) (18580, IBL, Japan), or [3] Rabbit polyclonal Anti-Human Amyloid J31-42 (AJ342) (18582, IBL, Japan) as primary antibodies. Further, the dilution ratios of antibodies were respectively [1]×50, [2]×200, and [3]×200. After the secondary antibodies were applied, the antibodies were visualized according to a polymer method using Histofine DAB substrate kit (NICHIREI CORPORATION, JAPAN).
Next, the tissue images of the stained samples were imaged using a bright field optical microscope (Olympus Corporation, BX53, DP73), and the images were stored according to the TIFF format (2400×1800 pixels, 3.5×2.6 mm, 2.13 μm^2/pixel). Each image was analyzed in the following manner using a particle analysis function of the image analysis processing software (Aquacosmos, Hamamatsu Photonics K.K., Japan). ROI was set as the cerebral cortex, particles were extracted according to a binarization method, and the area (the number of pixels) of each extracted particle was automatically calculated and output. In output particle data, particles with an area of 10 pixels or less were removed as noise and quantified.

AQP 4 [1] = molecular target: T1, AQP 4 (Mus musculus, UniProt P55088); assay: AQP 4 function promotion verification test using Alzheimer's disease model mice (H2 17O dynamics in brain by MRI); type: in vivo; conditions: 5×FAD Alzheimer's disease model mice, 50 mg/kg orally for 3 months, MRI (FIG. 3)
T1 construct: from tissue; host or cells: brain of living B6SJL mice
T1 sequence (P55088 whole entry): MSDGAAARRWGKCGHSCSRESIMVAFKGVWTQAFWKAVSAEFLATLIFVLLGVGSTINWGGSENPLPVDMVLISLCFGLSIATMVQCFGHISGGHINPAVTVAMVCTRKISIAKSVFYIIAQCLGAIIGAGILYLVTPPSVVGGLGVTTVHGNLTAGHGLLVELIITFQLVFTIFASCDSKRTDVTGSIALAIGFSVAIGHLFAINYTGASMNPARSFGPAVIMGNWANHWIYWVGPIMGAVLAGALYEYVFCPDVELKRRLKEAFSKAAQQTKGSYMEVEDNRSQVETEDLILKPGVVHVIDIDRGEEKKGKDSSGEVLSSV
Procedure: as §1
With respect to the group of mice to which the compound 1A was administered and the non-administration group, images showing the dynamics of H2^17O in the brain of each mouse (cortex and CSF) at 8 second intervals were recorded until 70 seconds after the administration using MRI according to the same method as in Test Example 1. In FIG. 3, “Vehicle” indicates a non-administration group and “Compound 1A” indicates a compound 1A administration group. Further, relative values (CSF/Cortex) with respect to the cortex are also shown.

AQP 4 [2] = molecular target: T1, AQP 4; assay: AQP 4 function promotion verification test using mice (H2 17O dynamics in brain by MRI); type: in vivo; conditions: normal male B6SJL-Tg mice, 8 weeks old, intraperitoneal administration, MRI until 70 seconds (FIG. 2B)
Procedure: Normal male B6SJL-Tg mice obtained from Jackson Laboratory were bred until 8 weeks old. Next, indomethacin as a comparative example, the compound 2A prepared in Production Example 1, and physiological saline as the control were intraperitoneally administered to respectively five mice.
Thereafter, 0.2 mL of typical physiological saline containing 20% H2^17O was administered to the right femoral vein of each mouse through the PE10 tube inserted thereinto using an automatic syringe at 0.04 mL/sec. Next, images showing the dynamics of H2^17O in the brain of each mouse ((cortex) and the cerebrospinal fluid (CSF)) at 8 second intervals were recorded until 70 seconds after the administration using magnetic resonance imaging (MRI). The results are shown in FIG. 2A (administration of indomethacin) and FIG. 2B (administration of compound 2A). FIGS. 2A and 2B show relative values (CSF/Cortex) of CSF with respect to the cortex. In FIGS. 2A and 2B, “Vehicle” indicates a non-administration control group, “Indomethacin” indicates an indomethacin administration group, and “Compound 2A” indicates a compound 2A administration group.

[3] = molecular target: T2, human AQP 4 (hAQP 4)-M23 isoform (Homo sapiens, UniProt P55087); assay: In vitro assay of oocyte volume under hypotonic condition, Xenopus laevis oocytes expressing AQP 4; type: cell-based; conditions: 20 μM compound, oocytes injected with hAQP 4-M23 mRNA, hypotonic reagent, up to 250 seconds, vs Blank (FIG. 1)
T2 construct: expressed in transfected cells; host or cells: Xenopus laevis oocytes, microinjected with hAQP4-M23 mRNA (pSP35T vector)
T2 sequence (P55087 23-323): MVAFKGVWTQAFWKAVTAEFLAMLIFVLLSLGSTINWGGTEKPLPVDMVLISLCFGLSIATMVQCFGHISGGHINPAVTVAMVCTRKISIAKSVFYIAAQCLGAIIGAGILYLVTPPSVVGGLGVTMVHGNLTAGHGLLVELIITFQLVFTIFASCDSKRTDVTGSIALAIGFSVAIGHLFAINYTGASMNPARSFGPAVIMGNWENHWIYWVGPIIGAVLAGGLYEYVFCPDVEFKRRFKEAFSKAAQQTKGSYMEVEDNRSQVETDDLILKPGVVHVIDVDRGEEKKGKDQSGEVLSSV
Procedure: A Modified Barth's Medium (MBS) was provided to contain NaCl (88 mM), KCl (1 mM), HEPES (10 mM), MgSO4 (0.82 mM), NaHCO3 (2.4 mM), CaCl2 (0.91 mM), Ca(NO3)2 (0.33 mM), and gentamicin (100 mg/L), prepared to have a pH of 7.5, and used within one week after the preparation.
Isolation, preparation, and transfection of the oocytes of a Xenopus laevis were performed using a method described in the reference (Sakimura, et al., FEBS Lett., 272, 73 to 80, 1990.). Specifically, the oocytes were extracted from a female adult of a Xenopus laevis (weight of 150 g) and transferred to an MBS. Next, the oocytes were partially transferred to an isolation buffer solution, and the theca folliculi was manually removed so that the oocytes were exposed. […]
Next, the transferred oocytes were imaged using an SZX 16 microscope (manufactured by Olympus Corporation) connected to a DP 26 digital camera (manufactured by Olympus Corporation). […] A Hypotonic reagent (1000 μL) was added, and an assay initial image (t=3 seconds) and images at 15 second intervals of were recorded up to 250 seconds after the administration. […]
Subsequently, the images were transferred to a personal computer, and the region of each oocyte was evaluated using NIH Image-J. The value of the cross-sectional area of each oocyte in a plurality of equally determined measurement times was converted into a volume assumed to be spherical. […]

Structure (SMILES)	increase in senile plaques (total Aβ, Aβ 40, Aβ 42 staining) (senile plaques (Aβ); 50 mg/kg orally for 3 months, cerebral cortex (FIGS. 5A-7B))	increase in senile plaques formed of Aβ 42 (senile plaques (Aβ))	AQP 4 function (H2 17O dynamics, CSF/Cortex) (AQP 4 [1])	numerical values of CSF/Cortex (H2 17O dynamics; water discharge, flow of cerebrospinal fluid) (AQP 4 [2])	volume of the oocyte [3]
N=C(N)NCCS(=O)(=O)O [compound 1A, 2-guanidino-1-ethanesulfonic acid]	can be suppressed	can be suppressed	markedly promoted	–	–
O=S(=O)(Nc1ncccc1OCc1ccccc1)c1ccccc1 [compound 2A, 2-(phenylsulfonamido)-3-benzyloxypyridine]	–	can be suppressed	–	decreased	significantly increased
